Reference: patent US20240383911A1, “AZAINDAZOLE MACROCYCLE COMPOUNDS AND USES THEREOF” (BROADENBIO CO., LTD, priority 2021, published 2024)

What was measured:
[1] = target: T1, FLT3 (Homo sapiens, UniProt P36888); assay: FLT3 kinase activity inhibition test (HTRF); format: biochemical; conditions: read-out: IC50, inhibitory effects on FLT3 kinase activity
T1 sequence (P36888 27-993): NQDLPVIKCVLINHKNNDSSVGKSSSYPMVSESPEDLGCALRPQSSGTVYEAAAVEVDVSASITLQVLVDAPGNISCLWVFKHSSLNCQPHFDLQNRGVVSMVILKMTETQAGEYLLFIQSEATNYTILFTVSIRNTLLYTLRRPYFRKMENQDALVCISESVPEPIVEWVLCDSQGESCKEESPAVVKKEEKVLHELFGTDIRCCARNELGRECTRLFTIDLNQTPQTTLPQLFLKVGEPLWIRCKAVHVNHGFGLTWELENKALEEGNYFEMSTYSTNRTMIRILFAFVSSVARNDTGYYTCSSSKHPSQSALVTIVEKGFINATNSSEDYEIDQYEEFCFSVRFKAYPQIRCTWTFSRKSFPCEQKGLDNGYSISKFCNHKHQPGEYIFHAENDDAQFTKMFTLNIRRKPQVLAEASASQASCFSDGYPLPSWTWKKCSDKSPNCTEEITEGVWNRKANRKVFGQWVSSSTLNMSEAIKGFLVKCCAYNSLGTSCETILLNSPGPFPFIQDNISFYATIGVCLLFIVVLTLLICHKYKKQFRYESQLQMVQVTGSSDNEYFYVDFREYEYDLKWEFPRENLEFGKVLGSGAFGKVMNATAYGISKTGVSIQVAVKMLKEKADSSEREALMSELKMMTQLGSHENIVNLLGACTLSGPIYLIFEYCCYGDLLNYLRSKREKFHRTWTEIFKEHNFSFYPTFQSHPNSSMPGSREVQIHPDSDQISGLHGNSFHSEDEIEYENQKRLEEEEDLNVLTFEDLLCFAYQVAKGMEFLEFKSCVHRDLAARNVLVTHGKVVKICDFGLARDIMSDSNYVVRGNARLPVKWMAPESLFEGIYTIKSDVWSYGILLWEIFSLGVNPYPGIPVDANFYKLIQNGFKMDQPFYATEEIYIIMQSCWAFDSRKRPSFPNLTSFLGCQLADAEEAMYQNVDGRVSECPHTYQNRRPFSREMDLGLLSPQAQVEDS
Procedure: (§1) Tested compounds: compounds prepared in the Examples of this invention.
(§2) Prepare compound stock solution: dissolve the test compound in 100% DMSO to make a 10 mM stock solution. Dilute the stock solution of the test compound by 5 times with 100% DMSO, make a 4-fold equal dilution in a 96-well dilution plate, add 1 μL of the compound to 39 μL of kinase reaction buffer (1×kinase buffer, 5 mM MgCl2, 1 mM DTT), and shake on a microplate shaker for 20 minutes. 4×Positive control (4 μL of positive compound solution of the starting concentration, add 196 μL of kinase buffer) and 4×negative control (4 μL of 100% DMSO, add 196 μL of kinase buffer).
(§3) (1) Use 1×kinase reaction buffer to prepare 2.5×FLT3 kinase solution (160 μM), transfer 2 μL of the kinase solution to the 384 reaction plate, and add 1 μL of the test compound solution of gradient concentration to the 384 reaction plate (Greiner, Cat #784075), centrifuge for 1 minute (1000 rpm), and incubate at 25° C. for 10 minutes.
(§4) (2) Use 1×kinase reaction buffer to prepare 2.5×TK-substrate-biotin (2.5 μM) and 2.5×ATP (2.5 μM), mix well, and add 2 μL of the TK-substrate-biotin/ATP solution to the 384 reaction plate, centrifuge for 30 seconds (1000 rpm), and incubate at 25° C. for 40 minutes.
(§5) (3) Use HTRF detection buffer to prepare 2×Sa-XL 665 (125 nM) and 1×TK-antibody-Cryptate. Add 5 μL of a mixture of Sa-XL 665 and TK-antibody-Cryptate solutions to each well, centrifuge for 30 seconds (1000 rpm), and react at room temperature for 1 hour.
(§6) (4) The fluorescence signal is read using a Biotek multi-function plate reader, and the IC50 (half inhibitory concentration) of the compound is obtained using a four-coefficient nonlinear fitting formula.

[2] = tested on: Human Jurkat-E6-1 cells; assay: Detection of IL-2 production by Jurkat cells using ELISA; format: cell-based; conditions: anti-CD3/anti-CD28 stimulation 24 hours, tested compound 1.0 μM, read-out: Percentage of the amount of IL-2 secreted by compound treated vs DMSO-treated cells
Procedure, shortened: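 Jurkat E6-1 cells were pre-incubated with compound for 30 min at 37 °C, then stimulated 24 h on plate-bound anti-CD3 plus soluble anti-CD28. Secreted IL-2 in supernatant was measured by sandwich ELISA (450 nm) against a standard curve and expressed as % of DMSO-treated cells.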

[3] = target: KDR (Homo sapiens, UniProt P35968); assay: KDR kinase activity inhibition test (HTRF); format: biochemical; conditions: read-out: IC50, inhibitory effects on KDR kinase activity
KDR, sequence (P35968 20-1356): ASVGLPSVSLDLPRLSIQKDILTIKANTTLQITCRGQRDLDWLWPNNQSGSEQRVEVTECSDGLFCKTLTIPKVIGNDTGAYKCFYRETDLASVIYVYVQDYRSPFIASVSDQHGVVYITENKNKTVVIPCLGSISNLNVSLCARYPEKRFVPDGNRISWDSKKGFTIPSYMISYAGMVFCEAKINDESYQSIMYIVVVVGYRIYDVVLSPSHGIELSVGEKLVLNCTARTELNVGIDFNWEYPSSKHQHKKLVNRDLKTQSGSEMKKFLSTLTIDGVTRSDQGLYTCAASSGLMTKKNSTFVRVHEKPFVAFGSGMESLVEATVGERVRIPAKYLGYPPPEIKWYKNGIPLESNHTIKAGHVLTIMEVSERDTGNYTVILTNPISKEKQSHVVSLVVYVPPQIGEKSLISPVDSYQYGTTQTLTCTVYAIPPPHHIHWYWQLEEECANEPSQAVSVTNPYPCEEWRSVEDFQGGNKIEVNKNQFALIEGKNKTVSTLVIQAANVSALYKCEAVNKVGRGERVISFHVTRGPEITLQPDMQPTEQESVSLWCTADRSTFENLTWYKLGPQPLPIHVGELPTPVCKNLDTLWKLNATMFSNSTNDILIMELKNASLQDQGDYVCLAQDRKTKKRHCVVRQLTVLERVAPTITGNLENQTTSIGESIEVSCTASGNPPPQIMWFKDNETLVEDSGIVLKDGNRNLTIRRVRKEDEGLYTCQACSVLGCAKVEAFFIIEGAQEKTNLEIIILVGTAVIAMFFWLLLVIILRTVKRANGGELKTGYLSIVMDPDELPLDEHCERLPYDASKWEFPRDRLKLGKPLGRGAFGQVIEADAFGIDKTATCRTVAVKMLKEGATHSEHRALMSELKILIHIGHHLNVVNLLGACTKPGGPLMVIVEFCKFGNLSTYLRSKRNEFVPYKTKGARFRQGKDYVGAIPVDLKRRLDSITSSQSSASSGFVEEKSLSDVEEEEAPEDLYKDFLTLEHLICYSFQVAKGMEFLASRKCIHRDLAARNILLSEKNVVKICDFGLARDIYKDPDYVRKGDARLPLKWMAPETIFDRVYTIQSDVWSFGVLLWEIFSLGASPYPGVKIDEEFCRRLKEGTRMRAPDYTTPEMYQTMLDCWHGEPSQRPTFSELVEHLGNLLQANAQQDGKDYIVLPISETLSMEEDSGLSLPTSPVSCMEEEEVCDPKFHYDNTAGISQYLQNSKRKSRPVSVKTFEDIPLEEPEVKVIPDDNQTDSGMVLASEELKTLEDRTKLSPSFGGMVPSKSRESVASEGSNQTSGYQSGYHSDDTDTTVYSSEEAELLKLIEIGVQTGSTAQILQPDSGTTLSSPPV
Procedure: as §1, §2
as §3, with “2.5×KDR” for “2.5×FLT3”, “(250” for “(160”
as §4, §5, §6

`CN1CCN(c2ncc3cc2OCCCOc2cccc(F)c2-c2cc4c-3n[nH]c4cn2)CC1` [Compound 3, 16-fluoro-5-(4-methylpiperazin-1-yl)-7,11-dioxa-4,19,22,23-tetraazapentacyclo[16.5.2.1^2,6.0^12,17.0^21,24]hexacosa-1(23),2(26),3,5,12,14,16,18,20,24-decaene] was tested, and the IC50 [1] was 5 to 50 nM, the activity at 1 µM [2] was 823% and the IC50 [3] was 5 to 50 nM.
For `CN1CCN(c2ccc3cc2OCCCOc2cccc(F)c2-c2cc4c-3n[nH]c4cn2)CC1` [Compound 6, 16-fluoro-5-(4-methylpiperazin-1-yl)-7,11-dioxa-19,22,23-triazapentacyclo[16.5.2.1^2,6.0^12,17.0^21,24]hexacosa-1(23),2(26),3,5,12,14,16,18,20,24-decaene], the IC50 [1] was at most 5 nM, the activity at 1 µM [2] was 542% and the IC50 [3] was at most 5 nM.
`CN1CCN(c2ccc3cc2OCCOCc2cccc(F)c2-c2cc4c-3n[nH]c4cn2)CC1` [Compound 9, 16-fluoro-5-(4-methylpiperazin-1-yl)-7,10-dioxa-19,22,23-triazapentacyclo[16.5.2.1^2,6.0^12,17.0^21,24]hexacosa-1(23),2(26),3,5,12,14,16,18,20,24-decaene] showed an IC50 [1] of at most 5 nM, an activity at 1 µM [2] of 568% and an IC50 [3] of at most 5 nM.
